Structures can show the parent of a compound that is named as a salt. Where two headings read alike, the source gives them in different places.
Tests used:
[1] = tested on: primary rat microglia; test: Cell toxicity (dead cells, size <150 μm2) in LPS assay; details: for LPS % cell toxicity: primary microglia HTS, LPS stimulation
[2] = tested on: fibrin- and LPS-induced microglia activation; test: cells; assay type: cell-based, rat
[3] = tested on: fibrin-induced microglia activation; test: Image-based assay of fibrin-induced microglia activation (HTS and dose response); assay type: cell-based, rat; details: for inhibition at 10 µM: read-out: Fibrin % inhibition
[4] = tested on: primary rat microglia; test: Cell toxicity (dead cells, size <150 μm2) in coated fibrin (cFib) assay; details: for Fibrin % cell toxicity: primary microglia HTS, fibrin stimulation;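 on Fibrin % cell toxicity: share of dead cells sized under 150 µm2 at 10 µM in fibrin-stimulated microglia HTS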
[5] = tested on: LPS-induced microglia activation; test: Image-based assay of LPS-induced microglia activation (HTS and dose response); assay type: cell-based, rat; details: for inhibition at 10 µM: read-out: LPS % inhibition
[6] = decreased size (<150 μm^2) as marker of toxicity
[7] = quadrant by fibrin and LPS inhibition in HTS of 1907 compounds
[8] = Rattus norvegicus, Microglia, primary microglia HTS, fibrin stimulation, increased cell size (>800 μm^2) as marker of activation
[9] = Rattus norvegicus, Microglia, 48 h, primary microglia HTS, LPS stimulation, increased cell size (>800 μm^2) as marker of activation
[10] = Rattus norvegicus, Microglia, primary microglia HTS, fibrin stimulation, activation = cell size >800 μm2
[11] = Rattus norvegicus, Microglia, 48 h, primary microglia HTS, LPS stimulation, activation = cell size >800 μm2

| Structure (SMILES) | Quadrant (FIG. 5b) [2, 7] | LPS % cell toxicity ([1]; toxicity = cell size <150 μm2) [%] | inhibition at 10 µM [3, 10] [%] | Fibrin % cell toxicity ([4]; toxicity = cell size <150 μm2) [%] | inhibition at 10 µM [5, 11] [%] | other results |
| --- | --- | --- | --- | --- | --- | --- |
| CC(=O)OCC(=O)[C@@]1(O)CC[C@H]2[C@@H]3CCC4=CC(=O)CC[C@]4(C)[C@H]3[C@@H](O)C[C@@]21C [Hydrocortisone acetate, reference compound] | Q2 | – | – | – | – | LPS % cell toxicity [1, 6]: 4%; Quadrant (FIG. 5b) ([2]; Table 2, screen at 10 μM): Q2; Activity ([2]; Table 7, fib = fibrin, LPS, tox = toxicity): fib/LPS; IC50 ([3]; Rattus norvegicus, Microglia, Table 7, read-out: fib_IC50): 0.01 µM; inhibition at 10 µM [3, 8]: 112%; Fibrin % cell toxicity [4, 6]: 4%; inhibition at 10 µM [5, 9]: 89%; IC50 ([5]; Rattus norvegicus, Microglia, Table 7, read-out: LPS_IC50): 0.017 µM |
| NS(=O)(=O)c1cc2c(cc1C(F)(F)F)NCNS2(=O)=O [Hydroflumethiazide] | Q4 | 0 | -9 | 0 | 11 | – |
| CC[C@H]1CN2CC[C@H]1C[C@@H]2[C@@H](O)c1ccnc2ccc(OC)cc12 [Hydroquinidine] | Q4 | 0 | -8 | 1 | 18 | – |
| CC(N)Cc1ccc(O)cc1 (stereo not shown) [Hydroxyamphetamine] | Q4 | 0 | -12 | 1 | -2 | – |
| CCN(CCO)CCCC(C)Nc1ccnc2cc(Cl)ccc12 (stereo not shown) [Hydroxychloroquine] | Q4 | 0 | 35 | 1 | 17 | – |
| CCCCCC(=O)O[C@]1(C(C)=O)CC[C@H]2[C@@H]3CCC4=CC(=O)CC[C@]4(C)[C@H]3CC[C@@]21C [Hydroxyprogesterone Caproate] | Q4 | 0 | 22 | 1 | 25 | – |
| CC/C=C\C/C=C\C/C=C\C/C=C\C/C=C\CCCC(=O)OCC [Icosapent ethyl] | Q4 | 0 | -13 | 0 | 1 | – |
| O=C1C2CC3CC1CC(O)(C3)C2 [Idramantone] | Q4 | 0 | -7 | 1 | 8 | – |
| CC#CCC(C)[C@H](O)/C=C/[C@@H]1[C@H]2C/C(=C/CCCC(=O)O)C[C@H]2C[C@H]1O (stereo partly shown) [Iloprost] | Q4 | 0 | 23 | 1 | -1 | – |
| N=C1NC(=O)N2CC12 (stereo not shown) [Imexon] | Q4 | 1 | -3 | 1 | 12 | – |
| CC1Cc2ccccc2N1NC(=O)c1ccc(Cl)c(S(N)(=O)=O)c1 (stereo not shown) [Indapamide] | Q4 | 0 | -14 | 0 | 11 | – |
| CC(C(=O)O)c1ccc(N2Cc3ccccc3C2=O)cc1 (stereo not shown) [Indoprofen] | Q4 | 0 | -34 | 1 | 18 | – |
| O[C@H]1[C@H](O)[C@@H](O)[C@H](O)[C@@H](O)[C@H]1O [Inositol] | Q4 | 0 | -21 | 0 | 11 | – |
| CC(=O)NCc1c(I)c(NC(C)=O)c(I)c(C(=O)O)c1I [Iodamide] | Q1 | – | – | – | – | LPS % cell toxicity [1, 6]: 1%; inhibition at 10 µM [3, 8]: 41%; Fibrin % cell toxicity [4, 6]: 0%; inhibition at 10 µM [5, 9]: 67% |
| CC(=O)N(CC(O)CN(C(C)=O)c1c(I)c(C(=O)NCC(O)CO)c(I)c(C(=O)NCC(O)CO)c1I)c1c(I)c(C(=O)NCC(O)CO)c(I)c(C(=O)NCC(O)CO)c1I (stereo not shown) [Iodixanol] | Q4 | 0 | -15 | 0 | 10 | – |
| C[C@H](O)C(=O)Nc1c(I)c(C(=O)NC(CO)CO)c(I)c(C(=O)NC(CO)CO)c1I [Iopamidol] | Q4 | 0 | -14 | 1 | -4 | – |
| CCC(Cc1c(I)cc(I)c(N)c1I)C(=O)O (stereo not shown) [Iopanic acid, reference compound] | Q3 | – | – | – | – | LPS % cell toxicity [1, 6]: 0%; IC50 ([1]; read-out: Cell Toxicity IC50 (uM) [LPS assay], Table 3): > 20 µM; Hit ([2]; HTS hit classification): HIT (Hits were defined as molecules that exhibited greater than 50% inhibition of either fibrin or LPS activation); Quadrant (FIG. 5b) ([2]; Table 1, screen at 10 μM): Q3; Cherry-picked Hit (Suppl. Table 7) ([2]; Table 3): HIT (Hits were defined as molecules that exhibited greater than 50% inhibition of either fibrin or LPS activation); Quadrant (FIG. 5b) ([2]; Table 3, screen at 10 μM): Q3; Fibrin Selectivity [3]: 4; Fibrin Selectivity (LOG10) [3]: 0.58; IC50 ([3]; Table 1, dose response 0.001-20 μM, triplicates, primary rat microglia, 48 h, read-out: Fibrin IC50): 5 µM; IC50 ([3]; Table 3, read-out: Fibrin IC50 (uM) (Suppl. Table 7)): 5 µM; IC50 ([3]; dose response, fibrin-induced microglia activation, read-out: Fibrin IC50): 5 µM; Fibrin % inhibition ([3]; primary microglia HTS, fibrin stimulation, increased cell size (>800 μm^2) as marker of activation): 51%; Fibrin % cell toxicity [4, 6]: 1%; IC50 ([4]; read-out: Cell Toxicity IC50 (uM) [cFib assay], Table 3): > 20 µM; IC50 ([5]; Table 1, dose response 0.001-20 μM, triplicates, primary rat microglia, 48 h, read-out: LPS IC50): > 20 µM; IC50 ([5]; Table 3, read-out: LPS IC50 (uM) (Suppl. Table 7)): > 20 µM; IC50 ([5]; dose response, LPS-induced microglia activation, read-out: LPS IC50): > 20 µM; LPS % inhibition ([5]; primary microglia HTS, LPS stimulation, increased cell size (>800 μm^2) as marker of activation): 35% |
| CNC(=O)c1c(I)c(NC(C)=O)c(I)c(C(=O)O)c1I [Iothalamic Acid] | Q4 | 0 | 5 | 1 | 7 | – |
| CC(=O)N(CC(O)CO)c1c(I)c(C(=O)NCCO)c(I)c(C(=O)NCC(O)CO)c1I (stereo not shown) [Ioxilan] | Q4 | 0 | 7 | 0 | 8 | – |
| CC(C)Oc1ccc2c(=O)c(-c3ccccc3)coc2c1 [Ipriflavone] | Q4 | 0 | -29 | 1 | 7 | – |
| CC(C)CCCC(C)NC(C)C (stereo not shown) [Iproheptine] | Q4 | 0 | -34 | 1 | 11 | – |
| Nc1nc(N)nc(-c2cc(Cl)ccc2Cl)n1 [Irsogladine Maleate] | Q4 | 0 | -27 | 1 | 14 | – |
| CC(C)Nc1ncccn1 [Isaxonine] | Q4 | 0 | -46 | 0 | -1 | – |

— patent US20210330611A1, “THERAPY FOR NEUROLOGICAL DISEASES/DISORDERS” (priority 2020, published 2021)
